From US6620844B2, “Method for reducing blood insulin levels by reducing in vivo cathepsin L activity” (NewMillennium Pharmaceutical, Inc., priority 2001, dated 2003)
pKi: −log10 of the molar value. “Also recorded” adds a separate entry of the source. Values belong to the compound of their own block, whether it stands above or below them.

Assays:
[1] = molecular target: Cathepsin B (Homo sapiens, UniProt P07858); conditions: cited from earlier work
[2] = molecular target: Cathepsin C (Homo sapiens, UniProt P53634); conditions: at 1 × 10^−6 M; cited from earlier work
[3] = molecular target: Cathepsin L (Homo sapiens, UniProt P07711); conditions: cited from earlier work
[4] = molecular target: Cathepsin S (Homo sapiens, UniProt P25774); conditions: at 1 × 10^−6 M; cited from earlier work
[5] = molecular target: T1, Cathepsin K (Homo sapiens, UniProt P43235); conditions: cited from earlier work
T1 sequence (P43235 115-329): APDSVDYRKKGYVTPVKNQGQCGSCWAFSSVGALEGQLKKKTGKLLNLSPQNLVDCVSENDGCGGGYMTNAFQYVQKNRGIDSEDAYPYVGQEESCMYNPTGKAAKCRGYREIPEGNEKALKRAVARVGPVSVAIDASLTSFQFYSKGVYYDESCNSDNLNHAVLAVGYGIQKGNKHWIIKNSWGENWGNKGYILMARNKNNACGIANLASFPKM

[6] = molecular target: T2, Papain (Carica papaya, UniProt P00784); conditions: cited from earlier work
T2 sequence (P00784 134-345): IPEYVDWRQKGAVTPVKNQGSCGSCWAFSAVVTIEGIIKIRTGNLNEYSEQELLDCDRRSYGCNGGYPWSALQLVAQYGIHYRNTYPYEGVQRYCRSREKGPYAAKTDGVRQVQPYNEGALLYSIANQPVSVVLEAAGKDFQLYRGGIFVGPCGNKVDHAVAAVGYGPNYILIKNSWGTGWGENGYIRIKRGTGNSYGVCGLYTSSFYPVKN

[7] = system: insulin like growth factor I receptor (IGF-IR); experiment: IGF-IR levels in human preadipocytes, Western blot; type: cell-based; conditions: 10 μM
Procedure: FIG. 3. […] Cells were treated as in FIG. 2. Western blot analysis was performed using goat anti-human IGF-1R polyclonal antibodies.
(§1) Human preadipocytes were initially cultured in MSCGM medium (BioWhitaker) at 37° C. and 5% CO2 for 7 to 12 days with 3-4 changes of media till complete confluence. Non-induced cells were kept in adipogenesis maintenance media containing 0.01 mg/ml of insulin, 0.05 units/ml of penicillin, 0.05 μg/ml of streptomycin, and 10% fetal bovine serum. To induce adipogenesis, complete confluent cells were cultured in adipogenesis induction medium containing 1 μM dexamethasone, 0.2 mM indomethacin, 0.01 mg/ml insulin, 0.5 mM 3-isobutyl-1-methyl-xanthine, 0.05 units/ml of penicillin, 0.05 μg/ml of streptomycin, and 10% fetal bovine serum in the presence and absence of protease inhibitors for 3 days followed by three days of culture in maintenance media. After three cycles of induction and maintenance, cells were cultured in maintenance media for additional 7 days with two changes of fresh media.
(§2) After differentiation, cells were collected, and lysed into 1×RIPA buffer. Protein concentrations were determined using Bio-Rad Dc protein assay system according to the manufacturer (Bio-Rad, Hercules, Calif.). Equal amount of proteins were separated on 7% SDS-PAGE for detecting IR and IGF-1R, 12% SDS-PAGE for detecting cathepsins S, K, and L antigens. Both IR and IGF-1R primary polyclonal antibodies were raised from goat and all cathepsin antibodies were polyclonal antibodies raised from rabbit. The corresponding HRP-conjugated secondary antibodies were used for detections.
To test which cathepsin is involved in the IR turnover, human preadipocytes (BioWhittaker, Walkersville, Md.) were induced to become adipocytes in the presence and absence of inhibitors. Differentiated adipocytes expressed more IR than controls as previously reported. Pederson et al. (2000) Biochem. Biophys. Res. Commun. 276:162-168. Cathepsin B inhibitor (CA 074, 10 μM) and catepsin S inhibitor (CLIK 060, 2 μM) had no effect on either IR turnover or differentiation (FIGS. 2). […]

[8] = system: CCAAT/enhancer-binding protein-α (C/EBP-α); experiment: C/EBP-α levels in human preadipocytes, Western blot; type: cell-based; conditions: human preadipocytes differentiated with inhibitor, FIG. 4
Procedure: FIG. 4. Inhibition of cathepsin L blocked the expression of CCAAT/enhancer-binding protein. Human preadipocytes were differentiated as in FIG. 2. A 10% gel was used to perform Western blot analysis using goat anti-human C/EBP-α polyclonal antibodies and the blot was detected using the corresponding HRP-conjugated secondary antibodies.
as §1
(§3) To evaluate the cell differentiation levels affected by aforementioned inhibitors, the levels of transcription factors CCAAT/enhancer-binding protein-α (C/EBP-α) as well as peroxisome proliferator-activated receptor-γ (PPAR-γ) from cells treated with and without inhibitors were measured. Both C/EBP-α and PPAR-γ are important adipocyte determination factors. Wu et al. (1999) Mol. Cell. 3:151-158; Tanaka et al. (1997) EMBO J. 16:7432-7443; and Tontonoz et al. (1994) Cell 79:1147-1156.

[9] = molecular target: T3, cathepsin B (Mus musculus, UniProt P10605); experiment: Cysteine protease active site labeling in mouse peritoneal macrophages: cathepsin B; type: cell-based; conditions: 10 μM
T3 construct: endogenous in cells; host or cells: thioglycolate-elicited mouse peritoneal macrophages
Procedure: (§4) FIG. 1. Cysteine protease inhibition profile by synthetic inhibitors in mouse peritoneal macrophages. [^125I]-Z-Tyr-Ala-CHN2-labeled mouse peritoneal macrophages were lysed and separated onto 12% SDS-PAGE to visualize labeled active cathepsins. Doses and inhibitors used were all indicated.
(§5) Mouse peritoneal macrophages were generated by injecting mice with thioglycolate as described in Shi et al. (2000) J. Exp. Med. 191:[…]. After 3-4 days of incubation, peritoneal microphages were washed out using Tris-EDTA buffers containing 6 mM EDTA (pH 8.0). Cells were then seeded onto 24-well plates in DMEM with 10% FBS till complete spread. After cells were attached to the plates, different doses of inhibitors were added. After 2-3 hours of incubation, cells were labeled with [^125I]-Z-Tyr-Ala-CHN2 overnight at 37° C. to detect intracellular active cysteine proteases. Cells were lysed into 1× reducing protein sample buffer and separated onto 12% SDS-PAGE.
(§6) First, the synthetic small molecule compounds were tested for their selectivity toward different forms of cathepsin. Mouse peritoneal macrophages were cultured in the presence of selective inhibitors and cysteine protease active site labeling probe [^125I]-Z-Tyr-Ala-CHN2 (Sukhova et al., supra). […] In contrast, other inhibitors used had no effect on cathepsin B activity. […] Therefore, these inhibitors can be utilized to test if the aforementioned cathepsins play roles in the breakdown of insulin receptor (IR) or IR turnover.

[10] = system: insulin receptor β subunit; experiment: Insulin receptor turnover in human preadipocytes, Western blot; type: cell-based; conditions: 10 μM, human preadipocytes
Procedure: FIG. 2. […] Human preadipocytes were incubated with and without inhibitors indicated at different doses, lysed, separated onto 7% SDS-PAGE, and probed with goat anti-human insulin receptor β-subunit polyclonal antibodies. Both mature β subunit and its precursor were indicated.
as §1, §2
To test which cathepsin is involved in the IR turnover, human preadipocytes (BioWhittaker, Walkersville, Md.) were induced to become adipocytes in the presence and absence of inhibitors. Differentiated adipocytes expressed more IR than controls as previously reported. Pederson et al. (2000) Biochem. Biophys. Res. Commun. 276:162-168. Cathepsin B inhibitor (CA 074, 10 μM) and catepsin S inhibitor (CLIK 060, 2 μM) had no effect on either IR turnover or differentiation (FIGS. 2). […] The same is true when the blot was tested with insulin like growth factor I receptor (IGF-IR) antibodies (FIG. 3).

[11] = molecular target: T4, cathepsin L (Mus musculus, UniProt P06797); experiment: Cysteine protease active site labeling in mouse peritoneal macrophages: cathepsin L; type: cell-based; conditions: 10 μM, mouse peritoneal macrophages
T4 construct: endogenous in cells; host or cells: thioglycolate-elicited mouse peritoneal macrophages
Procedure: as §4, §5, §6

[12] = molecular target: T5, cathepsin K (Mus musculus, UniProt P55097); experiment: Cysteine protease active site labeling in mouse peritoneal macrophages: cathepsin K; type: cell-based; conditions: 10 μM
T5 construct: endogenous in cells; host or cells: thioglycolate-elicited mouse peritoneal macrophages
T5 sequence (P55097 115-329): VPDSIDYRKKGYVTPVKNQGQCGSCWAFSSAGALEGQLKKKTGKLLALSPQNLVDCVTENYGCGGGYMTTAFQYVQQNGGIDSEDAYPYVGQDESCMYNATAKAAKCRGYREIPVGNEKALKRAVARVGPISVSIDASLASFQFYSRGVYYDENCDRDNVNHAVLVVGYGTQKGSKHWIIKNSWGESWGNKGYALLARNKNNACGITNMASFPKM
Procedure: as §4, §5, §6

[13] = system: mouse 3T3-L1 cells; experiment: Mouse 3T3-L1 preadipocyte adipogenesis, oil-red staining; type: cell-based; conditions: 15 μM
Procedure: FIG. 9. Effect of cathepsin L inhibitor during mouse 3T3-L1 preadipocyte differentiation. Mouse 3T3-L1 cells were induced for adipogenesis. CLIK 148 (10 μM) was […] at different time points (days) during adipogenesis. Cells were stained with oil-red at the end of differentiation.
Mouse preadipocytes were differentiated as described in Patel and Lane (2000) J. Biol. Chem. 275:17653-17660. In brief, mouse 3T3-L1 cells were cultured in DMEM containing 10% calf serum till confluence at 37° C. with 10% CO2. After additional two days maintenance in the same media, cells were differentiated by adding 0.5 mM methylisobutylxanthine, 1 μM dexmethasone, 1 μg/ml insulin, and 10% FBS for two days in the presence and absence of protease inhibitors. Culture media were replaced with DMEM containing 1 μg/ml insulin and 10% FBS. After day 4 the cells were fed every other day with 10% FBS in DMEM without insulin. By days 7-8, cells were fully differentiated.
Similar phenotypes were observed using mouse preadipocytes 3T3-L1 (ATCC, Manassas, Va.). Both active cathepsins L and S were found in differentiated adipocytes (FIG. 8, days 8-11). However, levels of both enzyme increased after the differentiation, a phenomenon different from that of human preadipoicytes. […] Cathepsin K antigen was detected in preadipocytes but not adipocytes nor insulin treated cells (FIG. 10).

[14] = system: human preadipocytes; experiment: Human preadipocyte adipogenesis, oil-red staining; type: cell-based; conditions: 10 μM, human preadipocytes
Procedure: FIG. 6. Oil-red staining of human preadipocytes and adipocytes.
as §1
This hypothesis is further confirmed by oil-red staining of CLIK 148 or 195 treated preadipocytes (FIG. 6). In addition, inhibition of adiogenesis by these two inhibitors is dose dependent. Less than 50% of adipogenesis was blocked by 1 μM of such inhibitors. […] In contrast, 1 μM of CLIK 060, 1 or 10 μM of CA 074 had no effect on adipogenesis (data not shown). Therefore, these observations indicate that cathepsin L appears to play a more critical role than cathepsins S and K in adipogenesis by controlling insulin/IR complex turnover.

[15] = system: peroxisome proliferator-activated receptor-γ (PPAR-γ); experiment: PPAR-γ levels in human preadipocytes, Western blot; type: cell-based; conditions: human preadipocytes differentiated with inhibitor, FIG. 5
Procedure: FIG. 5. Inhibition of cathepsin L blocked the expression of PPAR-γ. Human preadipocytes were used and Western blot analysis was performed as in FIG. 4 instead of using mouse anti-human PPAR-γ monoclonal antibodies as the primary antibodies.
as §1, §3

[16] = system: rat model of human glomerular disease; conditions: cited from earlier work

Cathepsin L, sequence (P07711 114-333, species assumed): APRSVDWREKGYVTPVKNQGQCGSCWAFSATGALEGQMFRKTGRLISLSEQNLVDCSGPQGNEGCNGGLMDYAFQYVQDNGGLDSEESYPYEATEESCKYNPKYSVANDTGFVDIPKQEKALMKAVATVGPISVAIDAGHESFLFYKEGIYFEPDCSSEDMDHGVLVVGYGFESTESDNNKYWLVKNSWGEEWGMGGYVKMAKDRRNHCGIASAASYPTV
Cathepsin S, sequence (P25774 115-331, species assumed): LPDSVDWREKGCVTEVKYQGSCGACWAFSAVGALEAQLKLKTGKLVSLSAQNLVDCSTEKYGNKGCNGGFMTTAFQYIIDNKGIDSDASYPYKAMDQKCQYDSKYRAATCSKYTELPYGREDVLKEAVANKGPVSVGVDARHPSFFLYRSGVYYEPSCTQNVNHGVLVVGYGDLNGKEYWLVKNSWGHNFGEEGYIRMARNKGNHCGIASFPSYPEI
Cathepsin C, sequence (P53634 25-463, species assumed): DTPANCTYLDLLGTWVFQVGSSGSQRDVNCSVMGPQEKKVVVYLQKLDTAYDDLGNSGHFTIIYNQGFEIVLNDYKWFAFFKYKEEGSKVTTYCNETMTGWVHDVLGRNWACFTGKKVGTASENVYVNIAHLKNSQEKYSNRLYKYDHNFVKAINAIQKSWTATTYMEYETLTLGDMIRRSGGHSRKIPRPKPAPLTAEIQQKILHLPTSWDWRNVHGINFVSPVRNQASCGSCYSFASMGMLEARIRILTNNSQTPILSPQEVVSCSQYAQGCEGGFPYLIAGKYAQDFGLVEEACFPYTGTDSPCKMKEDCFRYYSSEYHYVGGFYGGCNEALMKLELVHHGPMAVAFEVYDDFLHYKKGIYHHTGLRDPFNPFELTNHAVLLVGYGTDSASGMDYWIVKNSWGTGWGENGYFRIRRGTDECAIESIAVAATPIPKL
T3 sequence (P10605 80-333 limits assumed): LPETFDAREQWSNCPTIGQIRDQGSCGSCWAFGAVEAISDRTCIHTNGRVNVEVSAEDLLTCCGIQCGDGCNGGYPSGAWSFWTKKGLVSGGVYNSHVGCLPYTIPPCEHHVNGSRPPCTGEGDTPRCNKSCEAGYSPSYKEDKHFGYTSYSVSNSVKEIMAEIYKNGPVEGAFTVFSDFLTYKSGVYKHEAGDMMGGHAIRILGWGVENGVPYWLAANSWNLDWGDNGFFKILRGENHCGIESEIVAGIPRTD
T4 sequence (P06797 114-334): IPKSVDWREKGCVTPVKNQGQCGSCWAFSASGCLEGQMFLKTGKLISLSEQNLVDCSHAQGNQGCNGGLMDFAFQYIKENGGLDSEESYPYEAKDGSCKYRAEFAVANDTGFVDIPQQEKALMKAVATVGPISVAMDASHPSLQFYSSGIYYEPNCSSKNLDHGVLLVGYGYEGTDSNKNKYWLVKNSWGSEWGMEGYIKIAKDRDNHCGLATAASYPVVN

Compound: CN(C)C(=O)[C@H](Cc1ccccc1)NC(=O)C1O[C@@H]1C(=O)N[C@@H](Cc1ccccc1)C(=O)N(C)C (stereo partly shown)
% of Inhibition, Cathepsin B ([1]; at 1 × 10^−6 M): 0%
% of Inhibition, Cathepsin C [2]: 0%
% of Inhibition, Cathepsin L ([3]; at 1 × 10^−6 M): 100%
% of Inhibition, Cathepsin S [4]: 25%
% of Inhibition, Cathepsin K ([5]; at 1 × 10^−6 M): 0%

Compound: CCOC(=O)[C@H]1N[C@@H]1C(=O)NC(CC(C)C)C(=O)COC(=O)c1ccccc1 (stereo partly shown)
Cathepsin B: K2nd [1]: 1,607 M^−1Min^−1
Cathepsin L: K2nd [3]: 16,261 M^−1Min^−1
Papain: K2nd [6]: 1,533 M^−1Min^−1

Compound: O=C(CNC(=O)[C@H](Cc1ccccc1)NC(=O)OCc1ccccc1)NOC(=O)c1ccccc1
pKi [1]: 9.05 to 9.10
pKi [3]: 10.10 to 10.40
pKi [6]: 8.30 to 8.70
pKi [5]: 7.80 to 7.92

cathepsin B activity (active site labeling) [9]: not
cathepsin L activity (active site labeling) [11]: completely inhibited
cathepsin K activity (active site labeling) [12]: not
Compound: CN(C)C(=O)[C@H](Cc1ccccc1)NC(=O)[C@H]1O[C@@H]1C(=O)NCCc1ccccn1 (relative stereo) [CLIK 148, L-(+)-(2S, 3S)-N-[2-(2′-pyridinyl)-1-ethyl]-Na-amino-(L-phenylalaninedimethylamide)-trans-epoxysuccinamide]
levels of IGF-IR β subunit and its precursor (the same as for IR) [7]: increased levels
accumulation of 50 kDa C/EBP-α [8]: blocking the accumulation
levels of 95 kDa IR β subunit and its precursor [10]: increased levels
inhibition of adipogenesis in 3T3-L1 cells [13]: inhibition of adipogenesis
inhibition of adipogenesis / differentiation [14]: complete inhibition; also recorded: completely blocked
accumulation of 50 kDa PPAR-γ [15]: blocking the accumulation

Compound: CC(C)CCNC(=O)[C@H](CC(C)C)NC(=O)[C@H]1O[C@@H]1C(=O)O (relative stereo) [trans-epoxysuccinyl-L-leucylamido-(3-methyl)butane]
proteinuria [16]: significantly reduced
